Source: patent US10865193B2, “Pyridone derivatives for the treatment of viral infections and further diseases” (JANSSEN SCIENCES IRELAND UNLIMITED COMPANY, priority 2013, dated 2020)

Key:
Assay type in all cases: cell-based
[1] = system: interferon-stimulated responsive elements (ISRE); assay: Activation of ISRE promoter elements by conditioned media from PBMC (HEK-ISREluc); settings: Homo sapiens; PBMC overnight incubation, supernatant on HEK-ISREluc cells 24 hours; lowest effective concentration; read-out: HEK-ISRE luc (LEC)
Protocol: The potential of compounds to induce IFN-I was also evaluated by measuring the activation of interferon-stimulated responsive elements (ISRE) by conditioned media from PBMC. The ISRE element of sequence GAAACTGAAACT (SEQ ID NO: 1) is highly responsive to the STAT1-STAT2-1RF9 transcription factor, activated upon binding of IFN-I to their receptor IFNAR (Clontech, PT3372-5W). The plasmid pISRE-Luc from Clontech (ref. 631913) contains 5 copies of this ISRE element, followed by the firefly luciferase ORF. A HEK293 cell line stably transfected with pISRE-Luc (HEK-ISREluc) was established to profile the conditioned PBMC cell culture media.
Briefly, PBMCs were prepared from buffy coats of at least two donors using a standard Ficoll centrifugation protocol. Isolated PBMCs were resuspended in RPMI medium supplemented with 10% human AB serum and 2×10^5 cells/well were dispensed into 384-well plates containing compounds (70 μL total volume). After overnight incubation, 10 μL of supernatant was transferred to 384-well plates containing 5×10^3 HEK-ISREluc cells/well in 30 μL (plated the day before). Following 24 hours of incubation, activation of the ISRE elements was measured by assaying luciferase activity using 40 μL/well Steady Lite Plus substrate (Perkin Elmer) and measured with ViewLux ultraHTS microplate imager (Perkin Elmer). The stimulating activity of each compound on the HEK-ISREluc cells was reported as LEC value, defined as the compound concentration applied to the PBMCs resulting in a luciferase activity at least two fold above the standard deviation of the assay. The LEC in turn indicates the degree of ISRE activation on transfer of a defined amount of PBMC culture medium. Recombinant interferon α-2a (Roferon-A) was used as a standard control compound.

[2] = biological target: T1, human TLR7 (Homo sapiens, UniProt Q9NYK1); assay: TLR7 cellular reporter assay (HEK293, NFκB-luc); settings: HEK293 transiently transfected with TLR7 and NFκB-luc; 6 hours incubation; lowest effective concentration
T1 construct: expressed in transfected cells; host or cells: HEK293 (transient transfection)
T1 sequence (Q9NYK1 27-1049): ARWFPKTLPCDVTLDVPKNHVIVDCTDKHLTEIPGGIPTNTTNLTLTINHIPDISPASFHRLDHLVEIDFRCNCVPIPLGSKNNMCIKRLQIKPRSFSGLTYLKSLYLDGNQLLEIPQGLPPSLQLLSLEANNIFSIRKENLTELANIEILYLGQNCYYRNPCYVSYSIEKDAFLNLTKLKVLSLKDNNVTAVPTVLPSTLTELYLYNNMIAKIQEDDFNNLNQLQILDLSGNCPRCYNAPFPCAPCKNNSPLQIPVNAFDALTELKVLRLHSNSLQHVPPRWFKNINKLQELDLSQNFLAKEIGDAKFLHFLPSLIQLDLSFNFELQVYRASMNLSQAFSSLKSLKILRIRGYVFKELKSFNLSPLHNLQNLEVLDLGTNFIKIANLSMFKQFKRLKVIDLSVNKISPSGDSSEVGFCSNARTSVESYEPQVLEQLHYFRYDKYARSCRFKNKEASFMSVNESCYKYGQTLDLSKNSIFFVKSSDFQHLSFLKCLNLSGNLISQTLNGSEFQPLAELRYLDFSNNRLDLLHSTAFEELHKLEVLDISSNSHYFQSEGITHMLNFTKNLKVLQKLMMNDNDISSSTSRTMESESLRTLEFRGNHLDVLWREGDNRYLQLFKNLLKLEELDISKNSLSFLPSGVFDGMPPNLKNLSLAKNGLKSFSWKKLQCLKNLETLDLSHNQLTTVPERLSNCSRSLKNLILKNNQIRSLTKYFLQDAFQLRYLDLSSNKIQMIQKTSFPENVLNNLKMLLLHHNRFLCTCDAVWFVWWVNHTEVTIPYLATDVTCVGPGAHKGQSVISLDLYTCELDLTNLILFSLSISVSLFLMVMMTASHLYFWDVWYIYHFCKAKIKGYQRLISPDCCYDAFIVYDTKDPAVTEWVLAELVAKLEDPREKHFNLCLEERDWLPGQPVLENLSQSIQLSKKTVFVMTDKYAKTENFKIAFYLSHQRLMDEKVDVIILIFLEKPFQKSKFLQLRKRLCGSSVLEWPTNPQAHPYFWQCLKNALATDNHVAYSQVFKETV
Protocol: (§1) The ability of compounds to activate human TLR7 and/or TLR8 was assessed in a cellular reporter assay using HEK293 cells transiently transfected with a TLR7 or TLR8 expression vector and NFκB-luc reporter construct.
(§2) Briefly, HEK293 cells were grown in culture medium (DMEM supplemented with 10% FCS and 2 mM Glutamine). For transfection of cells in 15 cm dishes, cells were detached with Trypsin-EDTA, transfected with a mix of CMV-TLR7 or TLR8 plasmid (1700 ng), NFκB-luc plasmid (850 ng) and a transfection reagent and incubated for 48 h at 37° C. in a humidified 5% CO2 atmosphere. Transfected cells were then washed in PBS, detached with Trypsin-EDTA and resuspended in medium to a density of 1.25×10^5 cells/mL. Forty microliters of cells were then dispensed into each well in 384-well plates, where 200 nL of compound in 100% DMSO was already present. Following 6 hours incubation at 37° C., 5% CO2, the luciferase activity was determined by adding 15 μL of Steady Lite Plus substrate (Perkin Elmer) to each well and readout performed on a ViewLux ultraHTS microplate imager (Perkin Elmer). Dose response curves were generated from measurements performed in quadruplicates. Lowest effective concentrations (LEC) values, defined as the concentration that induces an effect which is at least two fold above the standard deviation of the assay, were determined for each compound.

[3] = biological target: T2, human TLR8 (Homo sapiens, UniProt Q9NR97); assay: TLR8 cellular reporter assay (HEK293, NFκB-luc); settings: HEK293 transiently transfected with TLR8 and NFκB-luc; 6 hours incubation; lowest effective concentration
T2 construct: expressed in transfected cells; host or cells: HEK293 (transient transfection)
T2 sequence (Q9NR97 27-1041): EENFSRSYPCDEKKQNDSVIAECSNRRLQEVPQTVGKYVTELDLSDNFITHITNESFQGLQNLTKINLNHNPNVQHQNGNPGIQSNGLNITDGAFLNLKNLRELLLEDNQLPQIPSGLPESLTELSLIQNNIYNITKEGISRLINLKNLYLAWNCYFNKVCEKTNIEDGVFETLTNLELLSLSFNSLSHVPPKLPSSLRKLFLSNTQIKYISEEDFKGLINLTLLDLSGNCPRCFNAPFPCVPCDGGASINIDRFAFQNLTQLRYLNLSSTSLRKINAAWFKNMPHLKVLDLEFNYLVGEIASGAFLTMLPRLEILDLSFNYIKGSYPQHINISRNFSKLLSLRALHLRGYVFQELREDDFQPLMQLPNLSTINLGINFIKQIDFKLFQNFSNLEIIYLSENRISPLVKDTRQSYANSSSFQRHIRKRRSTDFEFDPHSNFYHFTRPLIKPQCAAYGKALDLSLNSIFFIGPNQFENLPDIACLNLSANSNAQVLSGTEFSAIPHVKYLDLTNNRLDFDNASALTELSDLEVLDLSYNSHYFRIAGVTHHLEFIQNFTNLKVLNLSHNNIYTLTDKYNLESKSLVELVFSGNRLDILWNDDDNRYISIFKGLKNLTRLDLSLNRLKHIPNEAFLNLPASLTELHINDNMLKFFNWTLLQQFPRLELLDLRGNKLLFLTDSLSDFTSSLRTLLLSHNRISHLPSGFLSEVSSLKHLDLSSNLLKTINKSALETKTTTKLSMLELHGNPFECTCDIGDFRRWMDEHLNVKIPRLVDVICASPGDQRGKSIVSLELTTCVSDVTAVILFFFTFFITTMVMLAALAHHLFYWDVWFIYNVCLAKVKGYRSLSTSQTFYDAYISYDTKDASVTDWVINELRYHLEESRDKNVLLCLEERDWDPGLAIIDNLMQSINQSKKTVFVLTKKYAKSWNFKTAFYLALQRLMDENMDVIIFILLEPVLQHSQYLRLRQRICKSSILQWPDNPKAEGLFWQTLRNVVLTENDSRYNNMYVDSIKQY
Protocol: as §1, §2

| Human TLR 7 (LEC) [2] | Human TLR 8 (LEC) [3] | SMILES | minimal effective concentration [1] |
| --- | --- | --- | --- |
| 1.8 µM | 7.3 µM | CCCCNc1nc(N)ncc1Cn1ccccc1=O [Compound 1] | 0.7 µM |
| 1.1 µM | 2.1 µM | CCCCNc1nc(N)ncc1Cn1c(C)cccc1=O [Compound 2] | 0.8 µM |
| 0.8 µM | 10.3 µM | CCCCNc1nc(N)ncc1Cn1cc(C)ccc1=O [Compound 3] | 0.3 µM |
| 0.5 µM | 2.2 µM | CCCCNc1nc(N)ncc1Cn1ccc(C)cc1=O [Compound 4] | 0.5 µM |
| 0.9 µM | 2.7 µM | CCCCNc1nc(N)ncc1Cn1c(=O)ccc2ccccc21 [Compound 5] | 0.04 µM |
| 1.2 µM | 6.9 µM | CCCCNc1nc(N)ncc1Cn1cccc(F)c1=O [Compound 6] | 0.5 µM |
| 0.5 µM | 6.8 µM | CCCCNc1nc(N)ncc1Cn1ccc(C(F)(F)F)cc1=O [Compound 7] | 0.5 µM |
| 1.5 µM | >25 µM | CCCCCNc1nc(N)ncc1Cn1ccccc1=O [Compound 8] | 0.6 µM |
| 7.3 µM | >25 µM | CCCCCCNc1nc(N)ncc1Cn1ccccc1=O [Compound 9] | 3 µM |
| 1.0 µM | 16 µM | CCCCC(C)Nc1nc(N)ncc1Cn1ccccc1=O (stereo not drawn) [Compound 10] | 0.3 µM |
| 1.3 µM | 14.6 µM | CCCC(C)Nc1nc(N)ncc1Cn1ccccc1=O (stereo not drawn) [Compound 11] | 0.3 µM |
